Experimental data: patent publication US20210046139A1, “VEGETATION WATERS AND USES THEREOF” (FATTORIA LA VIALLA DI GIANNI, ANTONIO E BANDINO LO FRANCO - …, priority 2018, published 2021)
Marks after values point to notes of the source that are not given here.

How the values were obtained:
Assay type in all cases: in vivo, Sprague-Dawley rats
[1] = Body weight, daily food and water intake in STZ diabetic and control rats; conditions: 5 weeks; for BODY WEIGHT: 50 mg/kg/day (HT equivalent) in drinking water; for BODY WEIGHT / FOOD INTAKE: mean ± S.E.; for WATER INTAKE / FOOD INTAKE: 50 mg/kg/day
From the text: (§1) Use was made of 48 male Sprague-Dawley rats (Harlan, Italy) with a weight comprised from 180-200 g. A well-established model of streptozotocin (STZ)-induced diabetes in rats was used. Streptozotocin is a glucosamine derivative of nitrosurea which selectively destroys the β cells of the pancreatic islets and causes the development of diabetes with hyperglycemia and glycosuria. The model shares a series of characteristics with human diabetic complications at both a functional level and a biochemical level, such as, for example, a reduced nervous conduction, loss of small-diameter sensory nerve fibers in the skin, reduction in Na+ and K+-ATPase activity and early alterations of the thermal and mechanical nociceptive thresholds. In this study, diabetes was induced in 24 rats with a single intraperitoneal injection of 60 mg/kg of STZ dissolved in a sodium citrate buffer (pH 4.5). 24 rats injected only with the vehicle were used as non-diabetic controls. Hyperglycemia was confirmed by measuring glycosuria 72 hours after the injection of STZ using Keto-Diabur strips (KD-5000; Roche Diagnostics Spa, Italy). Only the animals with glycosuria >5% were classified as diabetic and included in the study. […] The animals were then randomized to receive the concentrate of the invention at an HT equivalent dose of 50 mg/kg/day or 50 mg/kg/day of pure HT in drinking water, according to the following treatment groups: The daily dose of compounds was administered starting from the 7th week after the injection of STZ or the vehicle. The treatment lasted 5 weeks and urine samples were taken. The animals were then sacrificed and the plasma, kidneys and sciatic nerves were removed. The sacrifice took place within 2 hours after the last administration of the concentrate, HT or the vehicle. During the trial, the rats were weighed weekly to monitor their weight gain/loss. Hyperglycemia was confirmed in every rat by measuring the glucose level in the blood taken from the vein of the tail with a suitable apparatus (Glucomen, Menarini, Italy), 15 days after the injection of STZ. A plasma glucose level above 300 mg/dL was defined as the hyperglycemia threshold for defining the animals as diabetics.

[2] = tested on: STZ diabetic rats; experiment: Mechanical nociceptive threshold (Randall-Selitto test); conditions: non-diabetic rats
From the text: A well-established model of streptozotocin (STZ)-induced diabetes in rats was used. Streptozotocin is a glucosamine derivative of nitrosurea which selectively destroys the β cells of the pancreatic islets and causes the development of diabetes with hyperglycemia and glycosuria. The model shares a series of characteristics with human diabetic complications at both a functional level and a biochemical level, such as, for example, a reduced nervous conduction, loss of small-diameter sensory nerve fibers in the skin, reduction in Na+ and K+-ATPase activity and early alterations of the thermal and mechanical nociceptive thresholds. In this study, diabetes was induced in 24 rats with a single intraperitoneal injection of 60 mg/kg of STZ dissolved in a sodium citrate buffer (pH 4.5). 24 rats injected only with the vehicle were used as non-diabetic controls. Hyperglycemia was confirmed by measuring glycosuria 72 hours after the injection of STZ using Keto-Diabur strips (KD-5000; Roche Diagnostics Spa, Italy). […] The animals were then randomized to receive the concentrate of the invention at an HT equivalent dose of 50 mg/kg/day or 50 mg/kg/day of pure HT in drinking water, according to the following treatment groups: The mechanical nociceptive threshold (Randall-Selitto test) was assessed using an electromechanical apparatus (Ugo Basile, Varese, Italy). […]

[3] = tested on: STZ diabetic rats; experiment: Plasma glucose and glycated hemoglobin (HbA1c); conditions: for HbA1c / PLASMA GLUCOSE: 50 mg/kg/day, 5 weeks, mean ± S.E.
From the text: as §1, with “A” for “Use was made of 48 male Sprague-Dawley rats (Harlan, Italy) with a weight comprised from 180-200 g. A”, “diabetics. At the end of the 5-week treatment period, urine and plasma were collected to measure the level of triglycerides (TG), total cholesterol (TC), high-density lipoprotein (HDL) and other parameters using commercially available diagnostic kits.” for “diabetics.”

[4] = non-diabetic control rats (CTRL)

Structure (SMILES): OCCc1ccc(O)c(O)c1 [HT, hydroxytyrosol]
- BODY WEIGHT ([1]; STZ diabetic rats): 216.6 ± 13.0 g
- WATER INTAKE ([1]; STZ diabetic rats): 170.1* ml/24 h
- FOOD INTAKE ([1]; STZ diabetic rats): 33.3 ± 3.7 g/24 h
- BODY WEIGHT [1, 4]: 450.4 ± 16.4 g
- WATER INTAKE [1, 4]: 69.5 ml/24 h
- FOOD INTAKE [1, 4]: 20.6 ± 0.9 g/24 h
- effect on mechanical nociceptive threshold [2]: no effect
- reduction in HbA1c (glycated hemoglobin) ([3]; STZ diabetic rats vs. untreated diabetic rats): 20%
- HbA1c ([3]; STZ diabetic rats): 52.3 ± 5.3 mM/mol
- PLASMA GLUCOSE ([3]; STZ diabetic rats): 729.6 ± 36.5 mg/dL
- HbA1c [3, 4]: 16.7 ± 0.2 mM/mol
- PLASMA GLUCOSE [3, 4]: 186.1 ± 3.2 mg/dL
